pEC50, pIC50, pKi: −log10 of the molar value.
Columns and labels:
[1] = tested on: O-GlcNAc modified proteins in PC-12 cells or SH-SY5Y cells; test: Western blot analyses of O-GlcNAc modified proteins in cells; assay type: cell-based; details: western blot, cells dosed 4 hours at 37° C.; cell line not given
Procedure: PC-12 cells or SH-SY5Y cells were dosed with the test compound or vehicle control at 37° C. for 4 hours. Once the incubation was completed the media was removed and cells were lysed. Extracted protein was then used for Western blot analysis using standard molecular biology techniques. The resulting membrane was probed with antibodies specific for tau phosphorylation sites (pSer396, pSer422, pThr231, pSer262) or with antibodies specific for O-GlcNAcylation sites (RL-2 or CTD110.6). The primary antibodies were visualised using appropriate secondary conjugated with the fluorophores Alexa 532 or Alexa 488. Actin was visualised using a FITC conjugated primary antibody. Relative quantification was measured in relation to the actin signal using Image lab software (BRL). Marked increases in O-GlcNAcylated proteins within the cells were observed as compared to controls when cells were dosed with test compound.

[2] = tested on: human β-hexosaminidase [human placenta] (HexA/B); test: Determination of IC50 values for inhibition of human β-hexosaminidase; assay type: biochemical; details: ratio
Procedure: (§1) Inhibitors identified from the screen described in Example 1 were evaluated for IC50 against human β-hexosaminidase [human placenta, Sigma-Aldrich] using a range of inhibitor concentrations from 300 μM to 0.003 μM or 100 μM to 0.001 μM and the following reaction conditions:
(§2) Reactions were carried out at room temperature for thirty minutes and then quenched through the addition of 150 μl 0.5M Na2CO3. Fluorescence readings were taken at excitation wavelength 360 nm and emission wavelength 450 nm. IC50 values were calculated using XLFit 4. The selectivity ratio for inhibition of human O-GlcNAcase over human β-hexosaminidase is defined here as:
(§3) IC50(human β-hexosaminidase)/IC50(Human OGA)

[3] = molecular target: T1, human β-hexosaminidase [human placenta] (HexA/B); test: as above; assay type: biochemical; details: human β-hexosaminidase, human placenta; room temperature, thirty minutes
T1 construct: other: human β-hexosaminidase, human placenta; room temperature, thirty minutes
Procedure: as §1, §2, §3

[4] = molecular target: T2, human OGA (Homo sapiens, UniProt O60502); test: Determination of IC50 values for inhibition of human OGA; assay type: biochemical
T2 construct: made in house
T2 sequence (O60502 1-916): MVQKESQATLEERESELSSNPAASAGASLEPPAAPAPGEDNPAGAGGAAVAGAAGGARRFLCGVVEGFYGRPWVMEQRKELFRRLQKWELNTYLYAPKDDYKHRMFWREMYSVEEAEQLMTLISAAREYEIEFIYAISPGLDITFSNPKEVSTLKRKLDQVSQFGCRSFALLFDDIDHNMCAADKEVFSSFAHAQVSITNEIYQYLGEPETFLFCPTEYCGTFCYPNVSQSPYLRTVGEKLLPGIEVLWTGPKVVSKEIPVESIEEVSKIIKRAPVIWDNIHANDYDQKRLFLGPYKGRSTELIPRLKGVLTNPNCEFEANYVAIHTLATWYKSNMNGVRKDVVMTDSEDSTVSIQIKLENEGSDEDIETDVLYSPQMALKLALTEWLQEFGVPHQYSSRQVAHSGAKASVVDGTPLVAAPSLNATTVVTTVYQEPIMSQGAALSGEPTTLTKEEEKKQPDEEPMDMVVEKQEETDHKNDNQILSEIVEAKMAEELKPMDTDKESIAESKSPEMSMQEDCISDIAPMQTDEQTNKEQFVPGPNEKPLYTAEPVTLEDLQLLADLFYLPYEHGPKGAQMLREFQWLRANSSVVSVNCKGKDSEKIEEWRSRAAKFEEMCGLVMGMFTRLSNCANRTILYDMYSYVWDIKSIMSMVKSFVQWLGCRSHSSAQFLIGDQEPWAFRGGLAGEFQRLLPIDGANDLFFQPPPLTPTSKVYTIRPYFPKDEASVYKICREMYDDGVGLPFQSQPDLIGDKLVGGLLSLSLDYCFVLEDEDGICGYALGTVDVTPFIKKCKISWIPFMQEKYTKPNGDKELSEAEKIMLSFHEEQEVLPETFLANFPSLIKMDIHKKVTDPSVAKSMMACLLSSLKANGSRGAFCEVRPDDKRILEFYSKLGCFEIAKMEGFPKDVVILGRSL
Procedure: Inhibitors identified from the screen described in Example 1 were evaluated for IC50 using a procedure adapted from Biochem. J. 2009, 420, 221-227. IC50 determination was carried out using a range of inhibitor concentrations from 300 μM to 0.003 μM or 100 μM to 0.001 μM. IC50 values were calculated using XLFit 4.

[5] = molecular target: T2, human OGA; test: Determination of Ki values for inhibition of human OGA (4MU-GlcNAc substrate); assay type: biochemical; details: 2 nM human OGA, McIlvaine buffer pH 7.4, one hour
Procedure: Enzymatic reactions were carried out in McIlvaine buffer (0.2M Na2PO4, 0.1M citric acid; pH 7.4) using 2 nM human OGA and 4MU-GlcNAc as substrate in the presence of inhibitor. For the Ki of AXX inhibitor concentrations were 0, 20, 40, 80, 160 and 320 nM [for the Ki determination of other compounds either the same concentrations or similar concentrations were used] and 4MU-GlcNAc concentrations were 50, 100, 200, 400, 800, 1600, and 3200 μM. Reactions were left for one hour. […] Modes of inhibition were determined by Lineweaver-Burke analysis and Ki values were determined using GraphPad 5 Prism non-linear regression analysis.

SMILES | pEC50 [1] | Selectivity: IC50(human β-hexosaminidase)/IC50(Human OGA) [2] | pIC50 [3] | pIC50 [4] | pKi [5]
CCNC(=O)C[C@@H]1[C@@H](O)[C@H](O)[C@@H](CO)N1CCCc1ccc(Cl)cc1 [Compound A063, 2-((2R,3R,4R,5R)-1-(3-(4-chlorophenyl)propyl)-3,4-dihydroxy-5-(hydroxymethyl)pyrrolidin-2-yl)-N-ethylacetamide] | 6.00 | >8333 | < 3.52 | 7.44 | 
CCCCCCCCCN1[C@H](CC(=O)NCCC)[C@H](O)[C@H](O)[C@H]1CO [Compound A008, 2-((2R,3S,4R,5R)-3,4-dihydroxy-5-(hydroxymethyl)-1-nonylpyrrolidin-2-yl)-N-propylacetamide] |  | >25000 | < 3.52 | 7.92 | 7.26
CCNC(=O)C[C@@H]1[C@@H](O)[C@H](O)[C@@H](CO)N1CCCc1ccc(OC)cc1 [Compound A060, 2-((2R,3R,4R,5R)-3,4-dihydroxy-5-(hydroxymethyl)-1-(3-(4-methoxyphenyl)propyl)pyrrolidin-2-yl)-N-ethylacetamide] | 6.58 | >27272 | < 3.52 | 7.96 | 6.78
CN(C)c1ccc(S(=O)(=O)NCCCCCCN2[C@H](CC(N)=O)[C@H](O)[C@H](O)[C@H]2CO)c2ccccc12 [Compound A015, 2-((2R,3S,4R,5R)-1-(6-(4-(dimethylamino)naphthalene-1-sulfonamido)hexyl)-3,4-dihydroxy-5-(hydroxymethyl)pyrrolidin-2-yl)acetamide] | 7.10 | >3666 | 4.96 | > 8.52 | 
CNC(=O)C[C@@H]1[C@H](O)[C@H](O)[C@@H](CO)N1CCCCCNS(=O)(=O)c1ccc(C)cc1 [Compound A064, 2-((2R,3S,4R,5R)-3,4-dihydroxy-5-(hydroxymethyl)-1-(5-(4-methylphenylsulfonamido)pentyl)pyrrolidin-2-yl)-N-methylacetamide] | 6.90 | >3366 | 5.00 | > 8.52 | 
CCNC(=O)C[C@@H]1[C@@H](O)[C@H](O)[C@@H](CO)N1CCC(c1ccccc1)c1ccccc1 [Compound A068, 2-((2R,3R,4R,5R)-1-(3,3-diphenylpropyl)-3,4-dihydroxy-5-(hydroxymethyl)pyrrolidin-2-yl)-N-ethylacetamide] |  | >65405 | 3.62 | 8.43 | 7.19
CNC(=O)C[C@@H]1[C@H](O)[C@H](O)[C@@H](CO)N1CCCNS(=O)(=O)c1ccc(-c2ccccc2)cc1 [Compound A072, 2-((2R,3S,4R,5R)-1-(3-([1,1′-biphenyl]-4-ylsulfonamido)propyl)-3,4-dihydroxy-5-(hydroxymethyl)pyrrolidin-2-yl)-N-methylacetamide] |  | >150000 | < 3.52 | 8.70 | 

The remaining lines, values ahead:

pEC50 [1] | Selectivity: IC50(human β-hexosaminidase)/IC50(Human OGA) [2] | pIC50 [3] | pIC50 [4] | pKi [5] | SMILES
5.40 | >3000 | < 3.52 | 6.99 |  | CNC(=O)C[C@H]1N[C@H](CO)[C@@H](O)[C@H]1O [Compound A007, 2-((2R,3S,4R,5R)-3,4-dihydroxy-5-(hydroxymethyl)pyrrolidin-2-yl)-N-methylacetamide]
6.03 | 5000 | 4.16 | 7.85 |  | CNC(=O)C[C@@H]1[C@H](O)[C@H](O)[C@@H](CO)N1CCCC(C)C [Compound A018, 2-((2R,3S,4R,5R)-3,4-dihydroxy-5-(hydroxymethyl)-1-(4-methylpentyl)pyrrolidin-2-yl)-N-methylacetamide]
5.97 | >2654 | < 3.52 | 6.95 |  | CCCNC(=O)C[C@H]1N[C@H](CO)[C@@H](O)[C@@H]1O [Compound A052, 2-((2R,3R,4R,5R)-3,4-dihydroxy-5-(hydroxymethyl)pyrrolidin-2-yl)-N-propylacetamide]
5.43 | >2529 | < 3.52 | 6.93 |  | CCCCCCN1[C@H](CO)[C@@H](O)[C@H](O)[C@H]1CC(=O)NCCC [Compound A055, 2-((2R,3R,4R,5R)-1-hexyl-3,4-dihydroxy-5-(hydroxymethyl)pyrrolidin-2-yl)-N-propylacetamide]
5.81 | 3666 | 4.48 | 8.05 |  | CNC(=O)C[C@@H]1[C@H](O)[C@H](O)[C@@H](CO)N1CCc1ccccc1 [Compound A010, 2-((2R,3S,4R,5R)-3,4-dihydroxy-5-(hydroxymethyl)-1-phenethylpyrrolidin-2-yl)-N-methylacetamide]
5.85 | >4769 | < 3.52 | 7.20 |  | CCCCCCN1[C@H](CO)[C@@H](O)[C@H](O)[C@H]1CC(=O)NCC [Compound A053, N-ethyl-2-((2R,3R,4R,5R)-1-hexyl-3,4-dihydroxy-5-(hydroxymethyl)pyrrolidin-2-yl)acetamide]
5.57 | >728 | < 3.52 | 6.39 |  | CCNC(=O)C[C@H]1N[C@H](CO)[C@@H](O)[C@@H]1O [Compound A050, 2-((2R,3R,4R,5R)-3,4-dihydroxy-5-(hydroxymethyl)pyrrolidin-2-yl)-N-ethylacetamide]
 | 4.66 | 6.89 | 7.55 |  | CNC(=O)C[C@H]1N[C@H](CO)[C@@H](O)[C@@H]1O [Compound A044, 2-((2R,3R,4R,5R)-3,4-dihydroxy-5-(hydroxymethyl)pyrrolidin-2-yl)-N-methylacetamide]
5.72 | >4366 | < 3.52 | 7.16 |  | CCN1[C@H](CC(=O)NC)[C@H](O)[C@H](O)[C@H]1CO [Compound A019, 2-((2R,3S,4R,5R)-1-ethyl-3,4-dihydroxy-5-(hydroxymethyl)pyrrolidin-2-yl)-N-methylacetamide]
 | >76.92 | < 3.52 | 5.41 |  | CCCCCCN1[C@H](CNC(C)=O)[C@H](O)[C@H](O)[C@H]1CO [Compound A035, N-(((2R,3S,4R,5R)-1-hexyl-3,4-dihydroxy-5-(hydroxymethyl)pyrrolidin-2-yl)methyl)acetamide]
 | 0.02 | 7.97 | 6.24 |  | CCCCCCN1[C@H](CC(=O)NC)[C@@H](O)[C@H](O)[C@@H]1CO [Compound A056, 2-((2R,3R,4R,5S)-1-hexyl-3,4-dihydroxy-5-(hydroxymethyl)pyrrolidin-2-yl)-N-methylacetamide]

— US20140073801A1, “PYRROLIDINE DERIVATIVES AS SELECTIVE GLYCOSIDASE INHIBITORS AND USES THEREOF” (Summit Corporation Plc, priority 2011, published 2014)
